{"source": "patent US8507448B2", "about": "“Human CD154-binding synthetic peptide and uses thereof” (Fresenius Medical Care Deutschland G.m.b.H., priority 2007, dated 2013)", "key": {"[1]": {"biological_target": "T1, human CD154 expressed on the surface of J558L cells (Homo sapiens, UniProt P29965)", "T1 construct": "expressed in transfected cells; host or cells: J558L murine myeloma cell line transfected with human CD154", "T1 sequence (P29965 1-261)": "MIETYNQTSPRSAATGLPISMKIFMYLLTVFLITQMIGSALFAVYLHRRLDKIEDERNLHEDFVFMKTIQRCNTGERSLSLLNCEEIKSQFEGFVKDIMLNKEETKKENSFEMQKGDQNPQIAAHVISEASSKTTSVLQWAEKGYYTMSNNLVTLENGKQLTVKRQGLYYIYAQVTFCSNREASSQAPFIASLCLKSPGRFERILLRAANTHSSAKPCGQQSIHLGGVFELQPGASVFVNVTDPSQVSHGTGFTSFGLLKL", "test": "Binding of -His6-tagged peptides to J558L CD154+ cells by flow cytometry", "conditions": "-His6 peptides 60 μM, 30 minutes at room temperature", "procedure": "FIG. 2 represents the binding of the seven peptides obtained from the human CD154-binding clones and tagged with a 6 histidines tail (-His6) to the J558L CD154^+ cells. […] The cells were incubated with each of the -His6-tagged peptides and then with a phycoerythrin-conjugated secondary antibody specific for the -His6 tail. The dotted histogram is the isotopic control, whilst the black line is the binding intensity of the CD154-specific peptides [4.2=4.3=CPSGHTKAC (SEQ ID NO: 1), 4.4=CGTHSSRIC (SEQ ID NO: 2), 4.6=CLGTQNKEC (SEQ ID NO: 3), 4.7=4.12=CTPGKPHSC (SEQ ID NO: 4), 4.8=CKAASANIC (SEQ ID NO: 5), 4.10=CLPTRHMAC (SEQ ID NO: 6) and 4.11=CLSAVHNMC (SEQ ID NO: 7)]. For each experimental condition, 10,000 events were analyzed and the values are the mean and standard deviation of 3 different experiments.\n(§1) The peptides were synthesized and conjugated with biotin (-bio) or with a 6-histidine tail (-his6) so as to enable in vitro and in vivo localization. […] Furthermore, a competition assay between the peptides and an anti-human CD154 fluorescein-conjugated antibody (Serotec) specifically recognizing the active site of CD154 was carried out. The J558L cells were incubated with the his6-peptides for 30 minutes at room temperature and then with anti-human CD154 fluorescein-conjugated antibody for another 30 minutes at room temperature. […] In order to identify the amino acid residues of the amino acid sequence of peptide 4.10 which are essential to the binding to CD154, three different peptides were synthesized, each one carrying a point mutation, which amino acid sequences differ from that of peptide 4.10 by replacement of the amino acid residues at positions 4, 5, 6, respectively, with one alanine residue.\nThe mutated peptides were not capable of recognizing human CD154 expressed at the surface of J558L cells (data not shown).\nSimilar results were obtained with the four modified peptides 4.101, 4.102, 4.103 e 4.104 having the amino acid sequences illustrated in table II."}, "[2]": {"tested_on": "CD40 stimulation of peripheral B cells by rhsCD154", "test": "rhsCD154-induced B cell activation (CD80 and CD86 membrane expression)", "type": "cell-based, human", "procedure": "The histograms of 4A show the effect of the anti-CD154 peptides and the control peptide 4.10-ala, on the activation B cells induced by stimulation with a soluble recombinant human CD154 molecule (rhsCD154). B cells were stimulated for 48 hours with rhsCD154 in the absence and in the presence of a blocking anti-human CD154 antibody or one of the seven selected peptides. Peripheral B cell activation was evaluated by flow cytometry, as the membrane expression of the co-stimulatory molecules CD80 and CD86. […] On the contrary, the activation is prevented when rhsCD154 is used in combination with a blocking anti-human CD154 antibody or with peptide 4.10 (SEQ ID NO: 6).\nB cells are known to constitutively express the CD40 molecule on the cells membrane (van Kooten C. et al, J. Leukoc. Biol. 2000). Stimulation of CD40 by CD154-expressing activated T cells, results in B cells activation, proliferation and isotype switching. The inventors employed B cells isolated from whole peripheral blood of healthy donors by gradient-Ficoll centrifugation and immunomagnetical separation (MACS systems—Milteniy). The quiescent B cells thereby obtained, were then stimulated with a soluble form of human recombinant CD154 (rhsCD154) to induce activation and expression of the co-stimulatory molecules CD80 (B7-1) and CD86 (B7-2) on the cell membrane. A drastic increase in membrane expression of CD80 and CD86 on the cell surface of peripheral B cells, after stimulation for 48 hours with rhsCD154 (100 ng/ml) was observed. […] In contrast, pre-incubation for 15 minutes at 37° C. of rhsCD154 (100 ng/ml) with peptide 4.10 (SEQ. ID NO: 6), prior to lymphocyte stimulation, blocked B cells stimulation and the related expression of CD80 and CD86. […] The results are the mean±standard deviation of five different experiments. Similar results were also obtained with B cells isolated from human spleen fragments. […] These experiments were carried out on […] naive B cells, obtained from peripheral blood by negative selection, by depletion of mature lymphocytes from the B cell pool by immunomagnetic separation (MACS Systems Milteniy)."}, "[3]": {"tested_on": "HUVEC", "test": "In vitro angiogenesis: cell cord formation of HUVECs on Matrigel", "type": "cell-based, human", "conditions": "pre-incubated with rhsCD154 100 ng/ml for 15 minutes at 37° C.; 4 hours", "description": "FIGS. 7B-F show representative images of cell cord formation ability on Matrigel under the various experimental conditions mentioned above (B=unstimulated control; C=rhsCD154; D=rhsCD154+ 4.10 peptide; E=rhsCD154+ 4.10-ala peptide; F=rhsCD154+ blocking anti-CD154 antibody). Peptide 4.10 of the invention (SEQ ID NO: 6), contrary to control peptide 4.10-ala (SEQ ID NO: 8), inhibits the rhsCD154-induced ability of the endothelial cells of forming cell cords.\nFurthermore, in order to evaluate the inhibitory effect, rhsCD154 (100 ng/ml) was pre-incubated for 15 minutes at 37° C. with peptide 4.10 (SEQ. ID NO: 6), or with control peptide 4.10-ala (SEQ. ID NO: 8), or with a blocking anti-human CD154 antibody. The flasks were then observed at 10× magnification for a period of 4 hours under a phase contrast inverted microscope equipped with a thermostatic chamber (at about 37° C.). The cells were photographed with a camera connected to the microscope, over the whole length of time of 4 hours at regular intervals of 15 minutes each. The migratory speed of each of the cells was calculated based on the position of the nucleus of each single cell in each single frame, using an image analysis software and, as a result, the average cell migratory speed (1 standard deviation) was calculated for each experimental condition. […] As a further confirmation of the ability of peptide 4.10 to prevent human endothelial CD40 stimulation by rhsCD154 (100 ng/ml), HUVECs (3.5×10^4) were subjected to an in vitro angiogenesis assay. HUVECs were plated on a tumor matrix (Matrigel, BD) capable of promoting the formation of super cellular organization, in a basal RPMI medium supplemented with 5% serum. Upon incubation at 37° C. under 5% CO2 for 4 hours, the cells were observed under a contrast phase inverted microscope."}, "[4]": {"tested_on": "control J558 cells (CD154-negative)", "test": "Binding to control CD154-negative J558 cells by flow cytometry", "design": "species or system murine", "conditions": "-His6 peptides"}, "[5]": {"biological_target": "T2, active site of human CD154 (Homo sapiens, UniProt P29965)", "T2 construct": "expressed in transfected cells; host or cells: J558L murine myeloma cell line transfected with human CD154", "T2 sequence (P29965 1-261)": "T1 sequence (P29965 1-261)", "test": "Competition with anti-human CD154 fluorescein-conjugated antibody on J558L cells", "type": "binding", "conditions": "-His6 peptides 30 minutes at room temperature, then antibody", "procedure": "The murine myeloma cells transfected with human CD154, J558L, were incubated with each of the seven anti-CD154 peptides tagged with a 6 histidines tail (-His6), and then with the anti-CD154 fluorescein-conjugated antibody. The ability of the peptides to compete with the anti-CD154 antibody for the binding to the CD154 molecule expressed on the surface of the J558L cells was evaluated by flow cytometry, as the reduction in the fluorescence intensity compared to the positive control represented by cells incubated with the anti-human CD154 fluorescein-conjugated antibody alone. […] The amino acid sequence of the control peptide differs from that of peptide 4.10 in that an arginine residue is replaced with an alanine residue at amino acid position 5.\nas §1"}, "[6]": {"tested_on": "human platelets", "test": "Platelet aggregation assay (aggregometer)", "type": "cell-based", "procedure": "Platelet aggregation was measured with an aggregometer, as the increase in light transmission compared to the control. Priming of human platelets with the anti-human CD154 antibody in combination with rhsCD154 increases platelet aggregation upon stimulation with ADP 0.5 μM.\nFinally, one of the major advantages of peptide 4.10 is its lack of reactivity towards human platelets. It is know that in the past, a number of clinical trials carried out to test promising anti-CD154 monoclonal antibodies were suddenly discontinued due to dramatic prothrombotic side effects (Kelsoe G. et al, J. Clin. Invest. 2003). The hypothesis is that the anti-CD154 antibodies had triggered a cross-reaction on the surface of human platelets expressing the receptor for the Fc immunoglobulin fraction (FcR) and, after activation, the CD154 molecule. Thus, the inventors tested the effect of peptide 4.10 on platelets, by a platelet aggregation assay. Such experiments were carried out by the use of a thermostatic aggregometer, equipped with a magnetic stirrer and a real time optical density meter. Platelet aggregation was evaluated as the change in optical density versus the reference sample (blank). The experiments were carried out on platelets extracted from peripheral whole blood of healthy donors collected in tubes containing 5 U/ml heparin. In particular, the platelet enriched plasma (PRP), was obtained by whole blood centrifugation at 900 rpm for 20 minutes, while the platelet poor plasma (PPP), used as the reference sample, was obtained collecting the supernatant after another centrifugation at 3000 rpm for 10 minutes. […] Similar results were obtained inducing platelet aggregation with 0.3 U/ml thrombin."}, "[7]": {"conditions": "peptide 250 μM with rhsCD154 100 ng/ml"}}, "note": "Positions of bridges follow the written chain, without caps; N, C: chain ends. Residues, ends and D or L forms follow the SMILES beside them. No end group written: not given here."}
{"compound": "CLPTRWMAC (binding protein) [4.104, modified form of peptide 4.10]", "values": [{"measurement": "binding to J558L CD154+ cells", "setting": "[1]", "result": "None of these peptides proved to be capable of binding"}]}
{"compound": "CLGTQNKEC (disulfide 1-9 (inferred)) [peptide 4.6]", "values": [{"measurement": "expression of CD80 compared to basal levels", "setting": "[2]; [7]", "result": 117, "unit": "%"}, {"measurement": "expression of CD86 compared to basal levels", "setting": "[2]; [7]", "result": 122, "unit": "%"}, {"measurement": "binding to J558L CD154+ cells", "setting": "[1]", "result": "capable of specifically binding"}, {"measurement": "effect on rhsCD154-induced formation of vessel-like cell cords on Matrigel", "setting": "[3]", "result": "not capable of significantly reducing the stimulation of endothelial CD40"}, {"measurement": "binding to control J558 cells", "setting": "[4]", "result": "not capable of binding"}, {"measurement": "competition with anti-human CD154 fluorescein-conjugated antibody specific for the active site of CD154", "setting": "[5]", "result": "do not specifically bind to the active site"}]}
{"compound": "CPSGHTKAC (disulfide 1-9 (inferred)) [4.2=4.3]", "values": [{"measurement": "binding to J558L CD154+ cells", "setting": "[1]", "result": "capable of specifically binding"}, {"measurement": "binding to control J558 cells", "setting": "[4]", "result": "not capable of binding"}]}
{"compound": "CIPTRHMVC (binding protein) [4.103, modified form of peptide 4.10]", "values": [{"measurement": "binding to J558L CD154+ cells", "setting": "[1]", "result": "None of these peptides proved to be capable of binding"}]}
{"compound": "CLPSRHMAC (binding protein) [4.102, modified form of peptide 4.10]", "values": [{"measurement": "binding to J558L CD154+ cells", "setting": "[1]", "result": "None of these peptides proved to be capable of binding"}]}
{"compound": "CSCC[C@@H]1NC(=O)[C@H](Cc2c[nH]cn2)NC(=O)[C@H](CCCNC(=N)N)NC(=O)[C@H]([C@@H](C)O)NC(=O)[C@@H]2CCCN2C(=O)[C@H](CC(C)C)NC(=O)[C@@H](N)CSSC[C@@H](C(=O)O)NC(=O)[C@H](C)NC1=O", "note": "[peptide 4.10, CLPTRHMAC] (H-CLPTRHMAC-OH; disulfide 1-9)", "values": [{"measurement": "platelet aggregation induced by ADP 0.5 μM after priming", "setting": "[6]; priming 10 minutes at 37° C., peptide 60 μM with CD154", "result": "did not enhance platelet aggregation"}, {"measurement": "activation of human platelet aggregation with thrombin at a subliminal dose", "setting": "[6]; thrombin 0.3 U/ml", "result": "inactive"}]}
{"compound": "CLSAVHNMC (disulfide 1-9 (inferred)) [peptide 4.11]", "values": [{"measurement": "inhibition of rhsCD154-induced B cell activation (CD80 and CD86 expression)", "setting": "[2]; 250 μM", "result": "not stably reproducible"}, {"measurement": "binding to J558L CD154+ cells", "setting": "[1]", "result": "capable of specifically binding"}, {"measurement": "effect on rhsCD154-induced formation of vessel-like cell cords on Matrigel", "setting": "[3]", "result": "not capable of significantly reducing the stimulation of endothelial CD40"}, {"measurement": "binding to control J558 cells", "setting": "[4]", "result": "not capable of binding"}, {"measurement": "competition with anti-human CD154 fluorescein-conjugated antibody specific for the active site of CD154", "setting": "[5]", "result": "do not specifically bind to the active site"}]}
{"compound": "CGTHSSRIC (disulfide 1-9 (inferred)) [4.4]", "values": [{"measurement": "binding to J558L CD154+ cells", "setting": "[1]", "result": "capable of specifically binding"}, {"measurement": "binding to control J558 cells", "setting": "[4]", "result": "not capable of binding"}]}
{"compound": "CIPTRHMAC (binding protein) [4.101, modified form of peptide 4.10]", "values": [{"measurement": "binding to J558L CD154+ cells", "setting": "[1]", "result": "None of these peptides proved to be capable of binding"}]}
{"compound": "CKAASANIC (disulfide 1-9 (inferred)) [4.8]", "values": [{"measurement": "binding to J558L CD154+ cells", "setting": "[1]", "result": "capable of specifically binding"}, {"measurement": "binding to control J558 cells", "setting": "[4]", "result": "not capable of binding"}]}
{"compound": "CTPGKPHSC (disulfide 1-9 (inferred)) [4.7=4.12]", "values": [{"measurement": "binding to J558L CD154+ cells", "setting": "[1]", "result": "capable of specifically binding"}, {"measurement": "binding to control J558 cells", "setting": "[4]", "result": "not capable of binding"}]}
